pEC50, pIC50: −log10 of the molar value. Marks after values point to notes of the source that are not given here.
Tests used:
[1] = Pharmacokinetics, plasma and brain concentrations in wild type mice; assay type: in vivo; conditions: mouse, ip; for CMax (brain; nmol/Kg): in vivo; for Tmax / Cmax: single intraperitoneal injection, wild type mice; for Tmax: time of maximum concentration in brain; for Cmax: plasma, at tMax, (Standard Deviation)
Procedure: Plasma and brain samples for measuring compounds concentrations were collected at predetermined times from four wild type mice per point. Three time points were measured: 0.25, 0.5 and 1.0 hour. Compounds concentration was measured using a Xevo-TQ MS triple quadropole mass spectrometer with an electrospray ionization (ESI) source and an Acquity UPLC (Waters, Manchester, UK).
[…]. Compounds were injected as a single intraperitoneal injection. Animals were killed by decapitation.
Plasma. Blood was collected into tubes containing EDTA and plasma was collected via centrifugation (4° C., 13200 rpm, 5 min) and stored at −80° C. until analysis.
Brain. Brains were collected immediately after mice death. The brains were excised, weighed and frozen at −80° C. until further process for analysis.
Chromatographic separation was performed by gradient elution at 0.4 mL/min using an Acquity UPLC BEH C18 column (100×2.1 mm, 1.7 μm particle size; Waters). The mobile phase consisted of A: water with 0.1% formic acid, B: methanol with 0.1% formic acid. After 1.5 min at the initial condition of 95% A, solvent B was increased from 5% to 100% over 2 min, maintained at 100% for 1.5 min, then a linear gradient to initial conditions was applied for 0.1 min and maintained for 3.4 minutes to re-equilibrate the column, giving a cycle time of 8.5 min. The autosampler temperature was set at 10° C. and column temperature at 45° C.
Compounds were monitored using a triple quadrupole mass spectrometer equipped with an electrospray ionization interface. For detection and quantification, a capillary voltage of 3.5 kV and a cone voltage of 38 V were used. Source and desolvation temperatures were 150° C. and 650° C., respectively. Ultra-high purity nitrogen was used for cone gas (75 L h^−1) and desolvation gas (1000 L h^−1). The electrospray ionization operated in the positive mode, and the collision gas used was ultra-pure argon at a flow rate of 0.15 mL min^−1.
Quantification was achieved by external calibration using matrix-matched standards. Concentrations were calculated using a weighted least-squares linear regression (W=1/×). […]. The mixture was then agitated for 10 min and centrifuged at 13200 rpm for 5 min at 4° C. The resulting supernatants were transferred to a Ostro plate (Waters, Manchester, UK), designed to remove phospholipids. The resulting eluents were evaporated at 37° C. under a stream of nitrogen. Residues were dissolved in 75 μL of a mixture of methanol and water (50:50, v:v). A 10-uL aliquot of the resulting solution was injected onto the LC-MS/MS system for analysis. Frozen plasma samples were thawed at room temperature, vortexed thoroughly and subjected to the above described extraction procedure. Brain samples were thawed unassisted at room temperature and homogenized using a Branson 250 ultrasonic sonifier (Branson, Danbury, Conn., USA). When homogenized, 75 mg were weighted and extracted as described previously.
Concentration values obtained from the LC-MS/MS analyses are described in Table 4.

HDAC6 = biological target: T1, HDAC6 (Homo sapiens, UniProt Q9UBN7); experiment: HDAC enzyme activity assay (fluorogenic substrate), HDAC6; assay type: biochemical; conditions: recombinant enzyme; read-out: HDAC6 inhibition (IC50)
T1 construct: BC069243; Cat. #50006) is full-length with N-terminal GST tag; GST (N); purchased BPS Biosciences 50006; host or cells: baculovirus infected Sf9 cells
T1 sequence (Q9UBN7 1-1215): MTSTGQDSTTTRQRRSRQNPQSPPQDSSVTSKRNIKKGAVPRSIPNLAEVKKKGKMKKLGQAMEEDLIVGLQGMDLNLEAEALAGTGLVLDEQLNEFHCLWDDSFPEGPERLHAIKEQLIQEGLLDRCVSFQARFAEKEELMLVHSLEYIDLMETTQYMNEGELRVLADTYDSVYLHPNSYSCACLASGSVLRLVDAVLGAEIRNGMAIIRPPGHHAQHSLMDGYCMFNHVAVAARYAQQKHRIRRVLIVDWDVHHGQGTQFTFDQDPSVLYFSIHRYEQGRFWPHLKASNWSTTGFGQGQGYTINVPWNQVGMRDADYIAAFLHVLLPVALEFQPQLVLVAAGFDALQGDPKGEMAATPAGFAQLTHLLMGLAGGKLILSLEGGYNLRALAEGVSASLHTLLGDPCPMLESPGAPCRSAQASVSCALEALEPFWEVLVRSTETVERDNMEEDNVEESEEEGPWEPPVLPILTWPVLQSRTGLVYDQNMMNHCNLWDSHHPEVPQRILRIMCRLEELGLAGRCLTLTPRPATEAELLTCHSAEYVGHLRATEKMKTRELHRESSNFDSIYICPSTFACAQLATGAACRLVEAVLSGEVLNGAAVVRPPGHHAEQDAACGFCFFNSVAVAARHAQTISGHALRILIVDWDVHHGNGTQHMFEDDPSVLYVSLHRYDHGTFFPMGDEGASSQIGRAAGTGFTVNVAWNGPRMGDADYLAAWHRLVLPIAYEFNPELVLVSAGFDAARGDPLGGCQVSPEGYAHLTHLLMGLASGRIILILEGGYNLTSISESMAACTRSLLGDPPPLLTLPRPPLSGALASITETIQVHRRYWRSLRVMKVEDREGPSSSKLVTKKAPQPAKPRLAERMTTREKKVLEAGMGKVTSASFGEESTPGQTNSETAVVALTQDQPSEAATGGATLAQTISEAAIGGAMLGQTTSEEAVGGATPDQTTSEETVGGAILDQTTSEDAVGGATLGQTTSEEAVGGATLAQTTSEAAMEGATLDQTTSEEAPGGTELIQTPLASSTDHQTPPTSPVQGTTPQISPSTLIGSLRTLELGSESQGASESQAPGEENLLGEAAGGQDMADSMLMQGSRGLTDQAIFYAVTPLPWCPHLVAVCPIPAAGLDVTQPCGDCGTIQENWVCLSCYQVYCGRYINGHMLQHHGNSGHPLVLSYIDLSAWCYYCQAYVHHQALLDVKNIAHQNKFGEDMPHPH

PDE9A isoform b = biological target: T2, PDE9A isoform b (Homo sapiens, UniProt O76083); experiment: PDE enzyme activity assay (HTRF cGMP), PDE9A; assay type: biochemical; conditions: recombinant enzyme; read-out: PDE9A inhibition (IC50)
T2 construct: they are full-length with N-terminal GST tag; GST (N); purchased BPS Biosciences 60090; host or cells: baculovirus infected Sf9 cells
T2 sequence (O76083 1-533 isoform O76083-2): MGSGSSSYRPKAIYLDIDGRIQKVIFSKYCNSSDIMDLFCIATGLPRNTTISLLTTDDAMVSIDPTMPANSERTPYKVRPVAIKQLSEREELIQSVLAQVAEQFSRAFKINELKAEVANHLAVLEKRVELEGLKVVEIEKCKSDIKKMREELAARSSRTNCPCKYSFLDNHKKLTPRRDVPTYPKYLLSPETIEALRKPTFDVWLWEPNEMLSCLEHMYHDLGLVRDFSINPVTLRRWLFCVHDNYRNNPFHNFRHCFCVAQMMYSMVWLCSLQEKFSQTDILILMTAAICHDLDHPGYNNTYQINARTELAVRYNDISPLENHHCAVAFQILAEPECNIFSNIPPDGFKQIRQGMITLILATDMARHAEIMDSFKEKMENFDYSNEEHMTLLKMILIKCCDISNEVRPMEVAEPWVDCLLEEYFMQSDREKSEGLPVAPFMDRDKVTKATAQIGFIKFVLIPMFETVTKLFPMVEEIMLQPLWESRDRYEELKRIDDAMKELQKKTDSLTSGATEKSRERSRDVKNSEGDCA

[2] = system: acetylated histone 3 at Lys9 (AcH3K9); experiment: HDAC activity in wild type primary neurons (Western blot AcH3K9); assay type: cell-based, mouse; conditions: Mus musculus, Neuron, 0.5 h, 30 min, EC50 = 50% increase in AcH3K9 over basal, read-out: AcH3 (EC50)
[3] = system: phosphorylated tau (p-tau); experiment: AD-related markers in Tg2576 neurons: pTau; assay type: cell-based; conditions: Mus musculus, Neuron, 48 h, treated two days, EC50 = 50% decrease in pTau over basal

Row | CMax (brain; nmol/Kg) ([1]; 20 mg/kg) | Tmax ([1]; dosage 20 mg/Kg) | Cmax ([1]; dosage 20 mg/Kg) | pIC50 (HDAC6) | pIC50 (PDE9A isoform b) | pEC50 [2] | CMax (brain; nmol/Kg) ([1]; 40 mg/kg) | Tmax ([1]; dosage 40 mg/Kg) | Cmax ([1]; dosage 40 mg/Kg) | pEC50 [3] | Structure (SMILES)
1 | 5.8 (1.8)^c nmol/Kg | 15 min | 283 nM | 6.00 to 8.00 | < 5.00 | 6.00 to 8.00 | – | – | – | – | CCCc1nn(C)c2c(=O)[nH]c(-c3cc(S(=O)(=O)N4CCN(c5ncc(C(=O)NO)cn5)CC4)ccc3OCC)nc12 [Example 1-06, 2-(4-[3-(6,7-Dihydro-1-methyl-7-oxo-3-propyl-1H-pyrazolo[4,3-d]pyrimidin-5-yl)-4-ethoxyphenylsulfonyl]piperazin-1-yl)-N-hydroxypyrimidine-5-carboxamide]
2 | 29 (8)^c nmol/Kg | 15 min | 653 nM | 6.00 to 8.00 | – | 6.00 to 8.00 | – | – | – | – | CCCc1nn(C)c2c(=O)[nH]c(-c3cc(Cc4ccc(C(=O)NO)cc4)ccc3OCC)nc12 [Example 1-15, 4-[[4-ethoxy-3-(1-methyl-7-oxo-3-propyl-6H-pyrazolo[4,3-d]pyrimidin-5-yl)phenyl]methyl]benzenecarbohydroxamic acid]
3 | – | – | – | 6.00 to 8.00 | – | 6.00 to 8.00 | 609 (178)^c nmol/Kg | 15 min | 15800 nM | 6.00 to 8.00 | CCCc1nn(C)c2c(=O)[nH]c(-c3cc(CC4CC(C(=O)NO)C4)ccc3OCC)nc12 (racemic) [Example 1-19, 3-[[4-ethoxy-3-(1-methyl-7-oxo-3-propyl-6H-pyrazolo[4,3-d]pyrimidin-5-yl)phenyl]methyl]cyclobutanecarbohydroxamic acid]
4 | 102 (7)^c nmol/Kg | 30 min | 11800 nM | 6.00 to 8.00 | – | 6.00 to 8.00 | – | – | – | 6.00 to 8.00 | CCCc1nn(C)c2c(=O)[nH]c(-c3cc(Cc4ccc(C(=O)NO)s4)ccc3OCC)nc12 [Example 1-16]
